The text below walks through data of PMC5564600 (Oncotarget, 2017).

Experiment in all cases: biochemical
What all share (assay type): binding

Experiment [1] addresses T1, panel of 442 kinases (Homo sapiens, UniProt P29597).
T1 construct: purchased Ambit Biosciences (scanMAXX KINOMEscan)

In experiment [2] the target is T2, panel of 442 kinases (Homo sapiens, UniProt P53671).
T2 construct: purchased Ambit Biosciences (scanMAXX KINOMEscan)
As to conditions: kinase LIMK2; for remaining activity at 1 µM: read-out: % of control at 1 µM.

Experiment [3] addresses T3, panel of 442 kinases (Homo sapiens, UniProt P78356).
T3 construct: purchased Ambit Biosciences (scanMAXX KINOMEscan)
T3 sequence (P78356 1-416): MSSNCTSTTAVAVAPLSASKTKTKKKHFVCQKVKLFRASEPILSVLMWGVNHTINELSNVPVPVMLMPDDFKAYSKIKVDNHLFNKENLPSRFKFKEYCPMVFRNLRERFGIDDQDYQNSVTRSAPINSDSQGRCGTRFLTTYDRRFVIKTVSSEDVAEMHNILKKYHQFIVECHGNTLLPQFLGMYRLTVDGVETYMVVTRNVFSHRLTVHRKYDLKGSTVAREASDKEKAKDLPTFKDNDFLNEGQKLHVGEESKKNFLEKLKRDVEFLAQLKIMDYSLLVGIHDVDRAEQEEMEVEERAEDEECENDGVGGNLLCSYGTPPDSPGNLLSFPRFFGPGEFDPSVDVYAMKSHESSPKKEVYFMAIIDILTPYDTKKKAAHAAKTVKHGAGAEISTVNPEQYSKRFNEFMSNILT
Conditions: kinase PIP5K2B; for remaining activity at 1 µM: read-out: % of control at 1 µM.

For experiment [4], the target named is T4, panel of 442 kinases (Homo sapiens, UniProt Q00536).
T4 construct: purchased Ambit Biosciences (scanMAXX KINOMEscan)
Conditions: kinase PCTK1; for remaining activity at 1 µM: read-out: % of control at 1 µM.

Experiment [5] concerns the target T5, panel of 442 kinases (Homo sapiens, UniProt Q08881).
T5 construct: purchased Ambit Biosciences (scanMAXX KINOMEscan)
T5 sequence (Q08881 1-620): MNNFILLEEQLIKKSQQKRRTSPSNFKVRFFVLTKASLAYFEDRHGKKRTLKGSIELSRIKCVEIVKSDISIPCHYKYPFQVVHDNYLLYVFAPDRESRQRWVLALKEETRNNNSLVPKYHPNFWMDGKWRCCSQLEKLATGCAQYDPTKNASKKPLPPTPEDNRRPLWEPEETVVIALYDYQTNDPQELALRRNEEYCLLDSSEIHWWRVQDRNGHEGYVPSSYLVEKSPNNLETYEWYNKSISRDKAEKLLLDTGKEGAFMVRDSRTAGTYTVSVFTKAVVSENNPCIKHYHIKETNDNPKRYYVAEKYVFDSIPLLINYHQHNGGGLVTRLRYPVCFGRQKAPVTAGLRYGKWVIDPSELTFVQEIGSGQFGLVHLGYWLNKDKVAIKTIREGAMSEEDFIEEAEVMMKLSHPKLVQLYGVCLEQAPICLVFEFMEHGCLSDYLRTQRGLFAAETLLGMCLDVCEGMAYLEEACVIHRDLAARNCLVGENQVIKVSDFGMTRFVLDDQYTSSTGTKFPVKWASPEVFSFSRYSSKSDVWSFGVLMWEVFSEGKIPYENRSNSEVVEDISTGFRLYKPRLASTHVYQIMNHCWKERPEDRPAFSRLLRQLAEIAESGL
As to conditions: kinase ITK; for remaining activity at 1 µM: read-out: % of control at 1 µM.

Experiment [6] addresses T6, panel of 442 kinases (Homo sapiens, UniProt Q8IVW4).
T6 construct: purchased Ambit Biosciences (scanMAXX KINOMEscan)
As to conditions: CDKL3; for remaining activity at 1 µM: read-out: % of control at 1 µM.

Experiment [7] addresses T7, panel of 442 kinases (Homo sapiens, UniProt Q96L34).
T7 construct: purchased Ambit Biosciences (scanMAXX KINOMEscan)
T7 sequence (Q96L34 1-752): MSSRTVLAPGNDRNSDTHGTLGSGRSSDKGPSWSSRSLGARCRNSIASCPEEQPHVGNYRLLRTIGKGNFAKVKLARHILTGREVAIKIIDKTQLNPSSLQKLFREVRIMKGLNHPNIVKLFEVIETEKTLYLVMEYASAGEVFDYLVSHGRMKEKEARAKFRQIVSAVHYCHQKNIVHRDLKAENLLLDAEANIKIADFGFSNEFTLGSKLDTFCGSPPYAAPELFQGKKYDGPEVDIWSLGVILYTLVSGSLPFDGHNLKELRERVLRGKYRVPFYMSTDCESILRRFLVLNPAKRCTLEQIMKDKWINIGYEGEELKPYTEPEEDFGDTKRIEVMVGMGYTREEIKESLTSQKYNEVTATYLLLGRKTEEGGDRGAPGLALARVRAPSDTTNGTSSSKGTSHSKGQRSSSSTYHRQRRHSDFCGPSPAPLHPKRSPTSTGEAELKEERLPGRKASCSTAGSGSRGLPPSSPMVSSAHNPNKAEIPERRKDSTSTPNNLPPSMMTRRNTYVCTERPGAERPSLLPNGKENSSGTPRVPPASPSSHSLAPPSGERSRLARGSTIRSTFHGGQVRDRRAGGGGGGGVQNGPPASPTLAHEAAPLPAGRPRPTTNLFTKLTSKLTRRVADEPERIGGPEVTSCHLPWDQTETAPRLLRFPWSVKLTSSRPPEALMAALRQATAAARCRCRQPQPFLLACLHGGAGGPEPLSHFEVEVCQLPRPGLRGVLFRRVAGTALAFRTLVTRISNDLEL
Conditions: kinase MARK4; for remaining activity at 1 µM: read-out: % of control at 1 µM.

Experiment [8] has as its target T8, panel of 442 kinases (Plasmodium falciparum, UniProt P61075).
T8 construct: purchased Ambit Biosciences (scanMAXX KINOMEscan)
Conditions: kinase PFPK5(P.falciparum); for remaining activity at 1 µM: read-out: % of control at 1 µM; for remaining activity at 10 µM: read-out: % of control at 10 µM.

Setting [9] is: kinase TYK2(JH1domain-catalytic), read-out: TYK2(JH1domain-catalytic) (% of control at 1 µM).
The mark [10] stands for this setting: kinase TYK2(JH2domain-pseudokinase), read-out: TYK2(JH2domain-pseudokinase) (% of control at 1 µM).
[11] abbreviates: 10 µM, read-out: % of control at 10 µM.

Where two headings read alike, the source gives them in different places.

T6 sequence (Q8IVW4 whole entry): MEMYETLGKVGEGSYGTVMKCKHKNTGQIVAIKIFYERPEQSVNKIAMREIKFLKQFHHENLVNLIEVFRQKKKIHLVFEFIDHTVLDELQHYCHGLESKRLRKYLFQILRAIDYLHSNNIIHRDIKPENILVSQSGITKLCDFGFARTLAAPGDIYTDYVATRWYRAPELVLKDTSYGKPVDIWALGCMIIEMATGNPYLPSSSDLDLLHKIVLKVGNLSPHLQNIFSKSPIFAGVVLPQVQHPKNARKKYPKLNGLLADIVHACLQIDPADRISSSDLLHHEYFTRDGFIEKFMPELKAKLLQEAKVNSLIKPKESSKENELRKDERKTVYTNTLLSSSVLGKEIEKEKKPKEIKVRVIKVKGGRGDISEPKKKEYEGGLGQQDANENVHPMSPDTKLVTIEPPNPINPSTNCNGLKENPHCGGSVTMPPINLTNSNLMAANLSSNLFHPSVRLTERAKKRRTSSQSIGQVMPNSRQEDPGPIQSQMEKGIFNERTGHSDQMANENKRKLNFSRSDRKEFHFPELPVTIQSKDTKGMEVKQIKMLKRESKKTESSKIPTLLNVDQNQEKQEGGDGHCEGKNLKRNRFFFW
T2 sequence (P53671 whole entry): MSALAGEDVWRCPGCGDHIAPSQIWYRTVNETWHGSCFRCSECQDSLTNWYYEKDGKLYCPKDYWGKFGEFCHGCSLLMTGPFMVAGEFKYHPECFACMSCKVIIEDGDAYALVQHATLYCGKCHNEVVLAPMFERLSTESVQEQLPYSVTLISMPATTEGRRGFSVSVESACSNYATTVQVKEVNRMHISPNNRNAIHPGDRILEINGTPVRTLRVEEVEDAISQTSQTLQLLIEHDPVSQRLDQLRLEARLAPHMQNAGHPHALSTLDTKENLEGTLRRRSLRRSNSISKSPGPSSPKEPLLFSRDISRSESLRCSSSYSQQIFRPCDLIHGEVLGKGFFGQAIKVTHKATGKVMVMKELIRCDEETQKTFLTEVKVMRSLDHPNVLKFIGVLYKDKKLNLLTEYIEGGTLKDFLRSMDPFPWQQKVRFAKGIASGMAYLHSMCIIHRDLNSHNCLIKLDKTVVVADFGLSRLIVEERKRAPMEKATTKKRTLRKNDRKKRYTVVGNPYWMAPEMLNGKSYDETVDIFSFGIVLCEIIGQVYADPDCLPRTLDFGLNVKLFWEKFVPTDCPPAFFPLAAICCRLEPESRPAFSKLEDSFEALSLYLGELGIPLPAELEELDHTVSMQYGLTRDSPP
T1 sequence (P29597 whole entry): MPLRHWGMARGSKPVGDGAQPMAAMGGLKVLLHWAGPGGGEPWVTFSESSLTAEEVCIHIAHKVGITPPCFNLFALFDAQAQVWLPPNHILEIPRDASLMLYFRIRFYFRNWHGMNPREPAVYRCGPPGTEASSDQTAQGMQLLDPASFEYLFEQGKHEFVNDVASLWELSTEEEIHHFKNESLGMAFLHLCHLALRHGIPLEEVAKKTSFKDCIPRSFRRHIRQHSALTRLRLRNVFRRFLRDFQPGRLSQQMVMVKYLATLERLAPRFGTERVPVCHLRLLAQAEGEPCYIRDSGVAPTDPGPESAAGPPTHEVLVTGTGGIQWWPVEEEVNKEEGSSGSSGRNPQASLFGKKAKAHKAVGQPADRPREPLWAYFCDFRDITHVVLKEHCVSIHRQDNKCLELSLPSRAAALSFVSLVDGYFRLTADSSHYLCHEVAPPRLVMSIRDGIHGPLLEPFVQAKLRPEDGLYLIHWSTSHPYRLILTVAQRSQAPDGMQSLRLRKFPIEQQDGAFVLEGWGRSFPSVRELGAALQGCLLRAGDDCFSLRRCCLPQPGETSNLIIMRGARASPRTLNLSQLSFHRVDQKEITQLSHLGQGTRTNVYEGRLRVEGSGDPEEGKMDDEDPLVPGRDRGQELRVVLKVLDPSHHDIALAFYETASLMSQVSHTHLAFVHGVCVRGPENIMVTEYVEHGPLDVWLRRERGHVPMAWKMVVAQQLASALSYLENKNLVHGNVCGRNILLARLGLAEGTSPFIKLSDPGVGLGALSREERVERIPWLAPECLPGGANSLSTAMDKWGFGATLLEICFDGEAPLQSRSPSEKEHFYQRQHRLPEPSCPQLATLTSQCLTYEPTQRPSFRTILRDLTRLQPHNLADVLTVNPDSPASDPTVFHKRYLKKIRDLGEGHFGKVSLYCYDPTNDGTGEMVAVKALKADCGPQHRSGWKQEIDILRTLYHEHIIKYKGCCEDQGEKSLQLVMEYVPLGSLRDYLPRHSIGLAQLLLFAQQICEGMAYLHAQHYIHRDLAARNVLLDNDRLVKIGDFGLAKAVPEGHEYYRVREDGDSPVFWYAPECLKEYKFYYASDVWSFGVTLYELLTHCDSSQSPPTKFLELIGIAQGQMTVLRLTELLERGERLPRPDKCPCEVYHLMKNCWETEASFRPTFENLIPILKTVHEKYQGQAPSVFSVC
T4 sequence (Q00536 whole entry): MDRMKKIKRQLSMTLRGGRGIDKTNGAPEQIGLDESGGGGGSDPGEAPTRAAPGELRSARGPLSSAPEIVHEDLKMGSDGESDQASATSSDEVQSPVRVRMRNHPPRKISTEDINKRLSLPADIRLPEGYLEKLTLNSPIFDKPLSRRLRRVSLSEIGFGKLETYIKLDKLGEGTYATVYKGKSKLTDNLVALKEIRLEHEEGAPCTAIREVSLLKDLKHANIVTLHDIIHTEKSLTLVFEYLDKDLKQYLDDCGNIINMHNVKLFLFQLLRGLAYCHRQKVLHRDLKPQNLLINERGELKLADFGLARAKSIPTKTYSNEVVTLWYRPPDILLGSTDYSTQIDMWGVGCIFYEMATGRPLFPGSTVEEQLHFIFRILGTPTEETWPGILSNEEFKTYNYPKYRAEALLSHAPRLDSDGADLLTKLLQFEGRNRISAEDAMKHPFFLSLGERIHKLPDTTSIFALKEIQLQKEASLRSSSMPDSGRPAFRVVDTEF
T8 sequence (P61075 whole entry): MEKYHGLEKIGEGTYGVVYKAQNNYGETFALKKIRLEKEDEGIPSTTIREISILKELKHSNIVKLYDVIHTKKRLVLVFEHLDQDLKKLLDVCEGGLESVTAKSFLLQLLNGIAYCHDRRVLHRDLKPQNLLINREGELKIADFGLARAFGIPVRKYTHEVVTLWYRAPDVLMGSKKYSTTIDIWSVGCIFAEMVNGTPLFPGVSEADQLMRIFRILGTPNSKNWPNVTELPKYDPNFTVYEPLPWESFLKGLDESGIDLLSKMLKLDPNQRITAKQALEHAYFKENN

`COc1ncc(-c2ccc3nccc(-c4ccnnc4)c3c2)cc1NS(=O)(=O)c1ccc(F)cc1F` [Omipalisib]: the remaining activity at 1 µM at panel of 442 kinases [1] (setting [9]) turned out to be 100%; at panel of 442 kinases [1] (setting [10]), 78%; on panel of 442 kinases [2], 89%; on panel of 442 kinases [3], 100%; on panel of 442 kinases [4], 96%; at panel of 442 kinases [5], 86%. In addition, the figures for the remaining activity at 1 µM on panel of 442 kinases [6], at panel of 442 kinases [7] and at panel of 442 kinases [8] were 100%, 83% and 100%, respectively.

On to `Cn1c(=O)n(-c2ccc(C(C)(C)C#N)cc2)c2c3cc(-c4cnc5ccccc5c4)ccc3ncc21` [Dactolisib, 2-methyl-2-[4-(3-methyl-2-oxo-8-quinolin-3-yl-2,3-dihydroimidazo[4,5-c]quinolin-1-yl)-phenyl] propionitrile], for which the remaining activity at 1 µM was 26% at panel of 442 kinases [1] (setting [9]); 65% on panel of 442 kinases [1] (setting [10]); 91% on panel of 442 kinases [2]; 100% at panel of 442 kinases [3]; 100% at panel of 442 kinases [4]; 91% at panel of 442 kinases [5]. Moreover, the results for the remaining activity at 1 µM on panel of 442 kinases [6], on panel of 442 kinases [7] and at panel of 442 kinases [8] were 57%, 61% and 100%, respectively.

Take `CS(=O)(=O)N1CCN(Cc2cc3nc(-c4cccc5[nH]ncc45)nc(N4CCOCC4)c3s2)CC1` [Pictilisib, 2-(1H-indazol-4-yl)-6-(4-methanesulfonyl-piperazin-1-ylmethyl)-4-morpholin-4-yl-t hieno[3,2-d]pyrimidine]: at panel of 442 kinases [8], the remaining activity at 1 µM was 92% and the remaining activity at 10 µM was determined as 100%.

With `Nc1cc(C(F)(F)F)c(-c2cc(N3CCOCC3)nc(N3CCOCC3)n2)cn1` [Buparlisib], the remaining activity at 1 µM turned out to be 100% on panel of 442 kinases [1] (setting [9]); 32% at panel of 442 kinases [1] (setting [10]); 100% at panel of 442 kinases [2]; 84% at panel of 442 kinases [3]; 79% at panel of 442 kinases [4]; 100% at panel of 442 kinases [5]. In addition, the remaining activity at 1 µM on panel of 442 kinases [6] amounted to 92%; at panel of 442 kinases [7], 100%; at panel of 442 kinases [8], 100%. The remaining activity at 10 µM is 100% on panel of 442 kinases [1] (kinase TYK2(JH1domain-catalytic), read-out: TYK2(JH1domain-catalytic) (% of control at 10 µM)); 22% at panel of 442 kinases [1] (kinase TYK2(JH2domain-pseudokinase), read-out: TYK2(JH2domain-pseudokinase) (% of control at 10 µM)); 100% on panel of 442 kinases [2] (setting [11]); 100% on panel of 442 kinases [3] (setting [11]); 100% at panel of 442 kinases [4] (setting [11]); 100% at panel of 442 kinases [5] (setting [11]). Moreover, the remaining activity at 10 µM at panel of 442 kinases [6] (setting [11]) came to 100%; on panel of 442 kinases [7] (setting [11]), 91%; at panel of 442 kinases [8], 100%.

Turning to `FC(F)c1nc2ccccc2n1-c1nc(N2CCOCC2)nc(N2CCOCC2)n1` [ZSTK474, 2-(difluoromethyl)-1-[4,6-di(4-morpholinyl)-1,3,5-triazin-2-yl]-1H-benzimidazole], the remaining activity at 1 µM on panel of 442 kinases [1] (setting [9]) stood at 93%; at panel of 442 kinases [1] (setting [10]), 97%; at panel of 442 kinases [2], 100%; at panel of 442 kinases [3], 100%; on panel of 442 kinases [4] it was 95%; at panel of 442 kinases [5], 97%. Besides, the remaining activity at 1 µM on panel of 442 kinases [6], on panel of 442 kinases [7] and on panel of 442 kinases [8] was 100% each time.
